From US10160736B2, “1,3,4-oxadiazole and 1,3,4-thiadiazole derivatives as immunomodulators” (Aurigene Discovery Technologies Limited, priority 2013, dated 2018)

These compounds were tested against T1, Recombinant mouse PD-L1 (Mus musculus, UniProt Q9EP73) (assay: Rescue of mouse splenocyte proliferation in the presence of recombinant PD-L1/PD-L2 (CFSE proliferation assay)). Settings: 100 nM compound; anti-CD3/CD28 stimulated mouse splenocytes + PD-L1; 72 h; normalised to stimulated splenocyte proliferation as 100%; read-out: Percent rescue of splenocyte proliferation (@100 nM compound concentration).
T1 construct: Fc (Fc chimera); purchased R&D Systems 1019-B7-100
T1 sequence (Q9EP73 with tags, fused parts or gaps limits assumed): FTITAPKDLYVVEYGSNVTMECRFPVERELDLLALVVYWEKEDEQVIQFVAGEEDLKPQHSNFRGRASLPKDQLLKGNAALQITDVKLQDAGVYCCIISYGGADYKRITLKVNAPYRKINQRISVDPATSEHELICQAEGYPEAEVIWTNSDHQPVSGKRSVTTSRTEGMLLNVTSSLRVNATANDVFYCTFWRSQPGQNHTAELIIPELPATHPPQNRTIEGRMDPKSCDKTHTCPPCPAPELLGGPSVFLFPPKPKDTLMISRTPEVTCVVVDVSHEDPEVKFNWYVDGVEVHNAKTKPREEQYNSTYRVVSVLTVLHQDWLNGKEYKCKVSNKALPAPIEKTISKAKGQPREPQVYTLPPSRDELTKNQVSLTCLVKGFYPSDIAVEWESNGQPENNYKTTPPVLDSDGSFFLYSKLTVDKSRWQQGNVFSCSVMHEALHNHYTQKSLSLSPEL
Type: cell-based
Procedure: Rescue of Mouse Splenocyte Proliferation in the Presence of Recombinant PD-L1/PD-L2:
Recombinant mouse PD-L1 (rm-PDL-1, cat no: 1019-B7-100 and R&D Systems) were used as the source of PD-L1.
Mouse splenocytes harvested from 6-8 weeks old C57 BL6 mice; RPMI 1640 (GIBCO, Cat #11875); DMEM with high glucose (GIBCO, Cat # D6429); Fetal Bovine Serum [Hyclone, Cat # SH30071.03]; Penicillin (10000 unit/ml)-Streptomycin (10,000 μg/ml) Liquid (GIBCO, Cat #15140-122); MEM Sodium Pyruvate solution 100 mM (100×), Liquid (GIBCO, Cat #11360); Nonessential amino acid (GIBCO, Cat #11140); L-Glutamine (GIBCO, Cat #25030); Anti-CD3 antibody (eBiosciences—16-0032); Anti-CD28 antibody (eBiosciences—16-0281); ACK lysis buffer (1 mL) (GIBCO, Cat #-A10492); Histopaque (density—1.083 gm/mL) (SIGMA 10831); Trypan blue solution (SIGMA-T8154); 2 mL Norm Ject Luer Lock syringe-(Sigma 2014-12); 40 μM nylon cell strainer (BD FALCON 35230); Hemacytometer (Bright line-SIGMA Z359629); FACS Buffer (PBS/0.1% BSA): Phosphate Buffered Saline (PBS) pH 7.2 (HiMedia TS1006) with 0.1% Bovine Serum Albumin (BSA) (SIGMA A7050) and sodium azide (SIGMA 08591); 5 mM stock solution of CFSE: CFSE stock solution was prepared by diluting lyophilized CFSE with 180 μL of Dimethyl sulfoxide (DMSO C2H6SO, SIGMA-D-5879) and aliquoted in to tubes for further use. Working concentrations were titrated from 10 μM to 1 μM. (eBioscience-650850-85); 0.05% Trypsin and 0.02% EDTA (SIGMA 59417C); 96-well format ELISA plates (Corning CLS3390); BD FACS caliber (E6016); Recombinant mouse B7-H1/PDL1 Fc Chimera, (rm-PD-L1 cat no: 1019-B7-100).
Splenocytes harvested in a 50 mL falcon tube by mashing mouse spleen in a 40 μm cell strainer were further treated with 1 mL ACK lysis buffer for 5 min at room temperature. After washing with 9 mL of RPMI complete media, cells were re-suspended in 3 mL of 1×PBS in a 15 mL tube. 3 mL of Histopaque was added carefully to the bottom of the tube without disturbing overlaying splenocyte suspension. After centrifuging at 800×g for 20 min at room temperature, the opaque layer of splenocytes was collected carefully without disturbing/mixing the layers. Splenocytes were washed twice with cold 1×PBS followed by total cell counting using Trypan Blue exclusion method and used further for cell based assays.
Splenocytes were cultured in RPMI complete media (RPMI+10% fetal bovine serum+1 mM sodium pyruvate+10,000 units/ml penicillin and 10,000 μg/ml streptomycin) and maintained in a CO2 incubator with 5% CO2 at 37° C.
CFSE is a dye that passively diffuses into cells and binds to intracellular proteins. 1×10^6 cells/mL of harvested splenocytes were treated with 5 μM of CFSE in pre-warmed 1×PBS/0.1% BSA solution for 10 min at 37° C. Excess CFSE was quenched using 5 volumes of ice-cold culture media to the cells and incubated on ice for 5 min. CFSE labelled splenocytes were further given three washes with ice cold complete RPMI media. CFSE labelled 1×10^5 splenocytes added to wells containing either MDA-MB231 cells (1×10^5 cells cultured in high glucose DMEM medium) or recombinant […] PDL-1 (100 ng/mL) and test compounds. Splenocytes were stimulated with anti-mouse CD3 and anti-mouse CD28 antibody (1 μg/mL each), and the culture was further incubated for 72 h at 37° C. with 5% CO2. Cells were harvested and washed thrice with ice cold FACS buffer and % proliferation was analyzed by flow cytometry with 488 nm excitation and 521 nm emission filters.
Percent splenocyte proliferation was analyzed using cell quest FACS program and percent rescue of splenocyte proliferation by compound was estimated after deduction of % background proliferation value and normalising to % stimulated splenocyte proliferation (positive control) as 100%.
Stimulated splenocytes: Splenocytes+anti-CD3/CD28 stimulation
Background proliferation: Splenocytes+anti-CD3/CD28+PD-L1
Compound proliferation: Splenocytes+anti-CD3/CD28+PD-L1+Compound […]

SMILES	activation at 0.1 µM [%]
CC(O)[C@H](N)c1nnc([C@H](CCC(N)=O)NC(=O)N[C@@H](CO)C(=O)O)o1 (stereo partly shown) [Compound 12]	92
CC(O)[C@H](N)c1nnc([C@H](CC(N)=O)NC(=O)N[C@@H](CO)C(=O)O)o1 (stereo partly shown) [Compound 10]	58
CC(O)[C@H](NC(=O)N[C@@H](CC(N)=O)c1nnc([C@@H](N)C(C)O)o1)C(=O)O (stereo partly shown) [Compound 9]	74
CC(O)[C@H](NC(=O)N[C@@H](CCC(N)=O)c1nnc([C@@H](N)C(C)O)o1)C(=O)O (stereo partly shown) [Compound 13]	75
CC(O)[C@H](NC(=O)N[C@@H](C)c1nnc([C@@H](N)CO)o1)C(=O)O (stereo partly shown) [Compound 1]	61.2
NC(=O)C[C@H](N)c1nnc([C@@H](N)CO)s1 [Compound 3]	48.4
CC(O)[C@H](NC(=O)N[C@@H](CC(N)=O)c1nnc([C@@H](N)CO)o1)C(=O)O (stereo partly shown) [Compound 2]	80.3
CC(O)[C@H](NC(=O)N[C@@H](CC(N)=O)c1nnc([C@@H](N)CO)s1)C(=O)O (stereo partly shown) [Compound 4]	60

Other lines, results leading:

activation at 0.1 µM [%]	SMILES
53	NC(=O)C[C@H](NC(=O)N[C@@H](CO)C(=O)O)c1nnc([C@@H](N)CO)o1 [Compound 14]
69	CC(O)[C@H](NC(=O)N[C@@H](CCC(=O)O)c1nnc([C@@H](N)CO)o1)C(=O)O (stereo partly shown) [Compound 15]
68	CC(O)[C@H](NC(=O)N[C@@H](CC(=O)O)c1nnc([C@@H](N)CO)o1)C(=O)O (stereo partly shown) [Compound 18]
53	NC(=O)CC[C@H](NC(=O)N[C@@H](CO)C(=O)O)c1nnc([C@@H](N)CO)o1 [Compound 17]
56	CC(O)[C@H](NC(=O)N[C@@H](CCC(N)=O)c1nnc([C@@H](N)CO)o1)C(=O)O (stereo partly shown) [Compound 16]
